{"source": "patent US20260373497A1", "about": "“MOLECULAR MACHINES STIMULATE INTERCELLULAR CALCIUM WAVES AND CAUSE MUSCLE CONTRACTION” (William Marsh Rice University, priority 2022, published 2026)", "key": {"[1]": {"test_system": "HEK293 cells", "assay": "Pharmacological blocking of MM 1-induced calcium responses", "type": "cell-based", "conditions": "role: inhibitor, MM 1 + light", "procedure": "FIGS. 14A-14J—Mechanistic study of MM-induced ICW. (a) Schematic of possible mechanisms by which calcium can enter the cytoplasm. Prepared with Biorender.com. (b) Confocal microscope images of HEK293 cells treated with MM 1, MitoTracker Green, ER Tracker Red, and CellMask Deep Red. Scale bars are both 20 μm and apply to the images in the same row. (c-h) Calcium waves elicited by MM 1-treated cells (c) in calcium-free PBS, (d) in RR (1 μM), (e) in Gd^3+ (50 μM), (f) after treatment of cells with Th (1 μM), (g) in Ry (100 μM), (h) in XeC (25 μM), (i) in U-73 (10 μM), (j) after pre-treatment of cells with Cyto D (2 μM). The solid line represents the calcium profiles averaged from six independent cells. The shaded region represents the standard error of the mean (n=6). Stimuli were presented after 30 s of imaging in each case, and the time of stimulus presentation is indicated by the vertical cyan line. […] All stimuli were delivered with a pulse width of 250 ms to a circular area of diameter 5 μm at a power ranging from 3.2×10^2 W cm^−2 to 5.1×10^2 W cm^−2. For all plots, the cyan line indicates the time of stimulus presentation. Controls and experimental groups were imaged and stimulated on the same day using the same conditions and with the same batch of cells. Error bars in the bar graphs represent the standard deviation of the mean of n=3 experiments (at least 6 stimulated cells per experiment). Statistical analyses were performed using a one-tailed Welch's t-test. * P-value<0.05, ** P-value<0.01, *** P-value<0.001, **** P-value<0.0001.\nImaging was conducted in imaging extracellular buffer (iECB; 119 mM NaCl, 5 mM KCl, 10 mM HEPES, 2 mM CaCl2, 1 mM MgCl2 (pH 7.2); 320 mOsm). Imaging in calcium-free medium was conducted in phosphate-buffered saline. Cells were prepared for imaging by seeding a 35 mm Ibidi imaging dish with ~50,000 cells in 1 mL of DMEM, and grown at 37 °C, 5% CO2 for 2 days. Prior to imaging, cells were incubated with dyes and/or molecules resuspended in complete growth medium at the appropriate concentration (MM 1 (8 μM), MM 2 (8 μM), MM 3 (24 μM), MM 4 (8 μM), Fluo-4 (2 μM)). MM and Fluo-4 were loaded into cells for 45 min. Cells treated with thapsigargin were exposed for 30 min after MM and Fluo-4 loading. Cells treated with organelle-targeting dyes were exposed for 5 min after MM loading. Ruthenium red and Gd^3+ were included in the imaging medium during stimulation and were associated with cells for 10 min prior to imaging. At the end of incubation, this medium was replaced with the iECB. Unless otherwise specified, all experiments were replicated in triplicate.\nPharmacological Experiments: In pharmacological blocking experiments, cells were loaded with MM and Fluo-4 as previously described. Typical imaging experiments in previously described extracellular buffer were then conducted as a positive control. Then, the imaging buffer was replaced, and the cells were treated as required for each experiment. After a brief recovery period, the cells were imaged again, and six different cells were stimulated. Experiments in calcium-free imaging buffer used phosphate buffered saline. Thapsigargin (Th: 1 μM) and Cytochalasin D (Cyto D; 2 μM) were incubated with cells in complete growth medium for 1 h (Th) or 2 h (Cyto D) before imaging. Ruthenium red (RR; 1 μM), gadolinium (Gd; 50 μM), ryanodine (Ry; 100 μM), xestospongin C (XeC; […]), and U-73122 (U-73; 10 μM) were administered directly into the imaging medium. Cells were incubated in the medium for ~5 min prior to imaging. Traces presented are representative results across at least six cells from single experiments, while bar graphs represent the average results across at least three distinct experiments."}, "[2]": {"test_system": "C2C12 myoblasts", "assay": "Pathway inhibitors on MM-induced calcium release in C2C12 myoblasts", "type": "cell-based, mouse", "conditions": "role: inhibitor; for Effect on MM-induced calcium signaling: SQ22536 100 μM, cAMPS-Rp 200 μM", "procedure": "FIGS. 38A-38F—Calcium release in C2C12 myoblasts occurs by means of the IP3 pathway. Average normalized fluorescence intensity traces of C2C12 myoblasts before and after treatment with a) 10 μM U-73122 (PLC inhibitor), b) 100 μM gallein (GPCRβγ inhibitor), c) 1 μM FR900359 (GPCRα inhibitor), d) 200 μM cAMPS-Rp (cAMP antagonist, inhibits PKA activation), e) 100 μM SQ22536 (adenylyl cyclase inhibitor), and f) 1 μM nintedanib (RTK inhibitor).\nIt was determined that MMs activate the IP3 pathway by inhibiting key proteins along the pathway. If inhibition of a specific protein decreases the magnitude of the observed calcium responses, then it can be assumed that the targeted protein played an important role in propagating the calcium signaling pathway that was initiated by MMs. […] When both gallein and FR900359 are used simultaneously, a similar decrease of ~50% also occurs (FIG. 33). […] This may occur either through direct MM activation or indirectly through MM activation of a different signaling pathway. It is known that RTKs can also activate PLC (Bill and Vines, 2020).\nThe effect of cAMP pathway inhibition on the elicited calcium signaling responses was measured by using 100 μM SQ22536 to inhibit adenylyl cyclase (FIG. 38D) and 200 μM cAMPS-Rp (FIG. 38E), a cAMP antagonist that inhibits protein kinase A (PKA) activation. […] At this moment it cannot be concluded whether this effect is because MMs also activate the GPCRs associated with the cAMP pathway, or if inhibition of adenylyl cyclase and PKA naturally affects normal calcium signaling pathways, regardless of MM stimulation."}, "[3]": {"test_system": "HEK293 cells", "assay": "ROS scavengers on MM 1-induced calcium waves", "type": "cell-based", "conditions": "melatonin 100 μM, thiourea 50 mM, L-ascorbic acid 2 mM; 1 h; MM 1, 4.5×10^2 W cm^−2", "procedure": "Normalized fluorescence intensity traces of HEK293 cells treated with MM 1 and Fluo-4 and administered (a) melatonin (Mel; 100 μM), (b) thiourea (ThioU; 50 mM), and (c) L-ascorbic acid (Vit C; 2 mM). The shaded region indicates the standard error of n=6 stimulation attempts. Dark traces indicate positive controls collected prior to treatment. Stimulation was administered at 4.5×10^2 W cm^−2. Cells were incubated with chosen ROS scavengers for 1 h prior to stimulation."}, "[4]": {"test_system": "C2C12 myotubes", "assay": "C2C12 myotube contraction (image subtraction)", "type": "cell-based, mouse", "procedure": "FIG. 35—Flow chart for the image subtraction process. First, the background is subtracted from the traces to account for drift during the course of the experiment (top row). After this, the traces are zeroed at the point of stimulation, and the area is calculated from the point of stimulation until the end of the experiment to yield the contraction magnitude. (bottom row).\nFIGS. 40A-40D—MMs induce contraction in C2C12 myotubes, a) Confocal microscopy images of Fluo-4 and b) image subtraction of brightfield images to highlight calcium release and contractile motion in three stimulated myotubes (indicated by the red arrows) immediately before stimulation (t=0) for 1.5 s with 400-nm light, as well as 10 s and 120 s after stimulation. Scale bar=30 μm. c) Magnitude of contraction of MM 1 compared to DMSO, MM 2, MM 3, and cells treated with 10 μM U-73122. d) Mechanism of skeletal muscle cell contraction.\nThis method yielded images where the pixel intensity corresponds to movement over the course of the experiment (FIG. 40C), allowing us to easily visualize and quantify contraction."}, "[5]": {"conditions": "cited from earlier work"}, "[6]": {"assay": "UV-Vis absorbance of motors in DMSO", "type": "physicochemical", "description": "The UV-Vis spectrum of each motor was also acquired in DMSO (FIG. 37D) to ensure that the difference in absorbance at 400 nm was not the cause of larger or smaller responses."}}, "data": [{"compound": "C=C1[C@@H](C)[C@H]2[C@H](Cc3ccccc3)NC(=O)[C@]23[C@H](OC(C)=O)/C=C/[C@@](C)(O)C(=O)[C@@H](C)C/C=C/[C@H]3[C@@H]1O", "note": "[cytochalasin D]", "values": [{"measurement": "Effect on MM-induced calcium responses", "setting": "[1]; cytochalasin D 2 μM, P=0.01762", "value": "inhibited"}]}, {"compound": "O=C1OC2(c3ccccc31)c1ccc(O)c(O)c1Oc1c2ccc(O)c1O", "note": "[gallein]", "values": [{"measurement": "inhibition at 100 µM", "setting": "[2]; Mus musculus, C2C12, gallein 100 μM, read-out: Reduction in observed calcium response", "value": "~50", "unit": "%"}]}, {"compound": "O=C1O[C@H]([C@@H](O)CO)C(O)=C1O", "note": "[L-ascorbic acid]", "values": [{"measurement": "Effect of ROS scavenger on MM induced ICW", "setting": "[3]", "value": "does not affect MM induced ICW"}]}, {"compound": "COc1ccc2c(c1)CC[C@@H]1[C@@H]2CC[C@]2(C)[C@@H](NCCCCCCN3C(=O)C=CC3=O)CC[C@@H]12", "note": "[U-73122, reference compound]", "values": [{"measurement": "Effect on MM-induced calcium responses", "setting": "[2]; U-73122 10 μM", "value": "completely abolished"}, {"measurement": "Myotube contraction magnitude with PLC inhibitor", "setting": "[4]; role: inhibitor, U73 (10 μM) with MM 1 + light", "value": "contraction magnitude equal to that of the DMSO control"}]}, {"compound": "C/C=C(/C)C(=O)O[C@H]1C(C)=C2[C@H]([C@@H]1OC(=O)CCCCCCC)[C@@](C)(OC(C)=O)C[C@H](OC(=O)CCC)[C@@]1(O)[C@H]2OC(=O)[C@@]1(C)O", "note": "[thapsigargin]", "values": [{"measurement": "Effect on MM-induced calcium responses", "setting": "[1]; thapsigargin 1 μM, P=0.00257", "value": "did not show any measurable calcium flux upon light stimulation"}]}, {"compound": "COC(=O)c1ccc2c(c1)NC(=O)/C2=C(\\Nc1ccc(N(C)C(=O)CN2CCN(C)CC2)cc1)c1ccccc1", "note": "[nintedanib]", "values": [{"measurement": "Effect on MM-induced calcium responses", "setting": "[2]; nintedanib 1 μM (RTK inhibition)", "value": "no decrease in magnitude of the elicited calcium responses"}]}, {"compound": "FR900359", "values": [{"measurement": "Reduction in observed calcium response", "setting": "[2]; FR900359 1 μM", "value": "~ 50%"}]}, {"compound": "COc1ccc2[nH]cc(CCNC(C)=O)c2c1", "note": "[melatonin]", "values": [{"measurement": "Effect of ROS scavenger on MM induced ICW", "setting": "[3]", "value": "does not affect MM induced ICW"}]}, {"compound": "C1CCC[C@H]2CCCN3CC[C@@H](CCCCCC[C@@H]4CCCN5CC[C@@H](CC1)O[C@@H]45)O[C@@H]23", "note": "[xestospongin C]", "values": [{"measurement": "Effect on MM-induced calcium responses", "setting": "[1]; XeC 25 μM (20 μM in Table 2), P=0.0167", "value": "significantly diminished the strength of cellular responses to MM"}]}, {"compound": "[Gd+3]", "note": "[Gd^3+, gadolinium]", "values": [{"measurement": "Effect on MM-induced calcium responses", "setting": "[1]; Gd^3+ 50 μM", "value": "did not affect the observed responses"}]}, {"compound": "ryanodine", "values": [{"measurement": "Effect on MM-induced calcium response amplitude", "setting": "[1]; ryanodine 100 μM", "value": "no effect on response amplitude"}]}, {"compound": "CN(C)CCNc1ccc2c(c1)Sc1ccccc1C2=C1CCc2ccc3ccccc3c21", "note": "[MM 2 (fast, bidirectional)]", "values": [{"measurement": "Myotube contraction", "setting": "[4]; 400-nm light 1.5 s, image subtraction", "value": "Strong cellular contraction did not occur"}, {"measurement": "Rotation rate", "setting": "[5]", "value": "~ 3 MHz"}, {"measurement": "Absorbance at 400 nm", "setting": "[6]", "value": "nearly identical absorbances at 400 nm"}]}, {"compound": "N.N.N.N.N.N.N.N.N.N.N.N.N.N.[Cl-].[Cl-].[Cl-].[Cl-].[Cl-].[Cl-].[O-2].[O-2].[Ru+3].[Ru+3].[Ru+4]", "note": "[ruthenium red]", "values": [{"measurement": "Effect on MM-induced calcium responses", "setting": "[1]; ruthenium red 1 μM (10 μM in Table 2)", "value": "did not decrease the magnitude of MM-induced calcium responses"}]}, {"compound": "Nc1ncnc2c1ncn2[C@@H]1O[C@@H]2CO[P@@](O)(=S)O[C@H]2[C@H]1O", "note": "[cAMPS-Rp]", "values": [{"measurement": "Effect on MM-induced calcium signaling", "setting": "[2]", "value": "small reduction in calcium signaling"}]}, {"compound": "NC(N)=S", "note": "[thiourea]", "values": [{"measurement": "Effect of ROS scavenger on MM induced ICW", "setting": "[3]", "value": "does not affect MM induced ICW"}]}, {"compound": "Nc1ncnc2c1ncn2C1CCCO1", "note": "(stereo not shown) [SQ22536]", "values": [{"measurement": "Effect on MM-induced calcium signaling", "setting": "[2]", "value": "small reduction in calcium signaling"}]}]}
